The record followed here is US12195447B2, “Azolopyrimidine for the treatment of cancer-related disorders” (ARCUS BIOSCIENCES, INC., priority 2017, dated 2025).

Experiment [1] addresses T1, adenosine A2A receptor (A2AR) (Homo sapiens, UniProt P29274).
T1 construct: expressed in transfected cells
The experiment in a line: A2AR/TREx CHO cAMP functional assay (antagonist mode, NECA EC80). It is filed as cell-based. As to the method:
Functional assays may also be employed to assess the compounds of the present invention. The cAMP assay described in detail below was used to evaluate certain compounds described herein.
Measurement of the Adenosine Receptor Activity of Compound I Using a A2AR/TREx CHO cAMP Functional Assay
Dose response of NECA (5-N-ethylcarboxamidoadenosine), a non-selective adenosine receptor agonist, was performed daily to determine the EC80 of NECA used in the cAMP functional assay. 1000-2500 cells/well of stably expressed A2AR TRex CHO cells were seeded to the 384-well Opti plate (Perkin Elmer) followed by incubating NECA at varies concentrations (ranging from 10 μM to 0 μM) at 37° C. for 30 min. […] FRET signal was detected with Envision multilabel plate reader (Perkin Elmer) when Eu-cAMP tracer excitation at 615 nm and emission at 665 nm. […]
The cAMP antagonist functional assay (Perkin Elmer) was performed on A2AR TRex CHO stable cell lines. […] FRET signal was detected when Eu-cAMP tracer excitation at 615 nm and emission at 665 nm. […]
Particular compounds were evaluated for adenosine A2A receptor activity as described for the cAMP assay above. […]

Another experiment addresses T2, A2BR (Homo sapiens, UniProt P29275).
T2 sequence (P29275 1-332): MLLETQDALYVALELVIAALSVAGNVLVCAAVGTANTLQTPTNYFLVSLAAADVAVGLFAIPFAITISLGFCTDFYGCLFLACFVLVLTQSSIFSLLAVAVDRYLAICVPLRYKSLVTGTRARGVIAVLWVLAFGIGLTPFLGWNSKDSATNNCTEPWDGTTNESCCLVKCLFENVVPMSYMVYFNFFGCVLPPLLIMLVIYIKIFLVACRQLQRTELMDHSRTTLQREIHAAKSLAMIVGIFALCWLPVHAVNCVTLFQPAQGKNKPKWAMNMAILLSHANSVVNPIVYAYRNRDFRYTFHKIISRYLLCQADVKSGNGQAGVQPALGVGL
The experiment in a line: Potency on A2BR (no method described). To be noted: summary statement.

A value given as a limit tells only on which side of the number the result lay.

T1 sequence (P29274 whole entry): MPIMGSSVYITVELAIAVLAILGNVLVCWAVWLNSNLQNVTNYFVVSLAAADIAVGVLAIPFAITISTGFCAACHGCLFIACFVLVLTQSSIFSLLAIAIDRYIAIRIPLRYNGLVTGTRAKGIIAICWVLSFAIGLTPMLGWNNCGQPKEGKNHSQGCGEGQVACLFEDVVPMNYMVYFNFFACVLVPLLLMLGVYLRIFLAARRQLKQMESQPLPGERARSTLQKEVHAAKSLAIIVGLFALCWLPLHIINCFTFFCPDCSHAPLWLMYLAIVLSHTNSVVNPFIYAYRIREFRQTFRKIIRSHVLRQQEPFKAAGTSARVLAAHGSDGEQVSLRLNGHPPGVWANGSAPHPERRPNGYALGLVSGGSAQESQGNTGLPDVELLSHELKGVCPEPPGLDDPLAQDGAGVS

`Cc1c(C#N)cccc1-c1cc(-c2cn(Cc3cccc(C(C)(C)O)n3)nn2)nc(N)n1` [Compound I, 3-[2-amino-6-(1-{[6-(2-hydroxypropan-2-yl)pyridin-2-yl]methyl}-1H-1,2,3-triazol-4-yl)pyrimidin-4-yl]-2-methylbenzonitrile] displayed a Kb in experiment [1] below 10 nM. For the same compound, in experiment [1] (summary statement), the “potency on A2AR (antagonist)” value is given as “less than 10 nM”. Also, the “potency on A2BR (antagonist)” value on A2BR was “less than 10 nM”.

As usually defined, the Kb is the affinity of an antagonist, worked out from how it opposes an agonist.
